# Like-named read-outs stand apart in the source and are kept apart here. Marks after values point to notes of the source that are not given here.
# How the values were obtained:
# [1] = system: CCRF-CEM human T-cell acute lymphoblastic leukemia cell line; assay: XTT cytotoxicity (cell growth inhibition), CCRF-CEM
# Experimental: The DC-3F hamster lung fibroblast cell line and its actinomycin D-selected sublines (DC-3F/ADII and DC-3F/ADX) were obtained from the Memorial Sloan-Kettering Cancer Center (MSKCC).
# (§1) The drug-resistant cell lines were continuously cultured in the presence of the selecting agent, AD, DX, VBL or VM to maintain the drug resistant phenotypes. […] All cells were cultured in RPMI 1640-10% FBS at 37° C. 5% CO2 (see below).
# (§2) The cells were cultured at an initial density of 5×10^4 cells/mL. They were maintained in a 5% CO2-humidified atmosphere at 37° C. in RPMI-1640 medium (GIBCO-BRL, Gaithersburg, Md.) containing penicillin (100 U/mL), streptomycin ([…]) (GIBCO-BRL) and 10% heat inactivate fetal bovine serum. Culture for cell suspension (such as for CCRF-CEM, P388 and sublines), were performed by the XTT-microculture tetrazonium method (Scudiero, D. A. et al., Cancer Res. 1988, 48, 4827-4833) in duplicate in 96-well microtiter plates.
# (§3) 2′,3′-Bis(methoxy-4-nitro-5-sufophenyl)-5-[(phenylamino)carbonyl]2H-tetrazolium hyudroxide (XTT) was prepared at 1 mg/mL in prewarmed (37° C.) medium without serum. Phenazine methosulfate (PMS) and fresh XTT were mixed together to obtain 0.025 mM PMS-XTT solution (25 μL of the stock 5 mM PMS was added per 5 mL of 1 mg/mL XTT). Following a 72 h incubation, 50 μL of the assay aliquots were added to each well of the cell culture. After incubation at 37° C. for 4 h, absorbance at 450 nm and 630 nm was measured with a microplate reader (EL340, Bio-Tek Instruments, Inc., Winooski, Vt.).
# CCRF-CEM/VBL100 = assay: cells; assay type: cell-based, human; conditions: read-out: IC50
# Experimental: as §1, §2, §3
# CCRF-CEM/VM1 = assay: cells; assay type: cell-based, human; conditions: read-out: IC50
# Experimental: as §1, §2, §3
# [2] = system: human mammary carcinoma MX-1 xenograft; conditions: MX-1; i.p.; comparison with Camptothecin, VBL, EpoB (order wraps over rows r7-r8)
# Experimental: (§4) DMSO was used as a vehicle for epothilones. Each mouse received ≦40 μL DMSO in all experiments.
# (§5) Athymic nude mice (nu/nu) were used for MX-1 and MCF-7/Adr human mammary carcinoma xenografts. Mice were obtained from Taconic Laboratory Animals and Service (Germantown, N.Y.: outbred, Swiss background).
# [3] = system: MDR human mammary adenocarcinoma MCF-7/Adr xenograft; assay: in vivo
# Experimental: as §4, §5
# [4] = system: Human Lymphoblastic Leukemia CCRF-CEM; assay: CCRF-CEM xenograft in nude mice, i.v. 6 h infusion; assay type: in vivo; conditions: for Average Body Weight, Day 21: initial weight
# [5] = camptothecin 3 mg/kg i.p. Q2Dx5 from day 8, day 11
# [6] = camptothecin 3 mg/kg i.p. Q2Dx5 from day 8, day 13
# [7] = camptothecin 3 mg/kg i.p. Q2Dx5 from day 8, day 15
# [8] = camptothecin 3 mg/kg i.p. Q2Dx5 from day 8, day 17
# [9] = high doses: Taxol 12, Adriamycin 3, Camptothecin 3.0 mg/kg i.p. day 8,10,12,14,16
# [10] = Dose DesoxyepoB 40, Taxol 20, i.v. infusion 6 hr on day 21,23,25,27
# [11] = Table 26, Dose Q2D x 4: DesoxyepoB 40, Taxol 20
compound,measurement,setting,value
CC1=CCC(C(C)=Cc2csc(C)n2)OC(=O)CC(O)C(C)(C)C(=O)C(C)C(O)C(C)CCC1 (stereo not drawn) [#11],IC50,"[1]; Table 6, single determinations",0.09 µM
same,IC50,"[1]; Table 7, CEM",0.09 µM
same,IC50,"CCRF-CEM/VBL100; Table 6, single determinations",0.262 µM
same,IC50,"CCRF-CEM/VBL100; Table 7, CEM/VBL",0.262 µM
same,IC50,CCRF-CEM/VBL100,0.262 µM
same,IC50,"CCRF-CEM/VM1; Table 6, single determinations",0.094 µM
CC(=Cc1csc(C)n1)C(O)CC=CCCCC(C)C(O)C(C)C(=O)C(C)(C)C(O)CC(=O)O (stereo not drawn) [#12],IC50,"[1]; Table 6, single determinations",0.794 µM
same,IC50,"[1]; Table 7, CEM",0.794 µM
same,IC50,"CCRF-CEM/VBL100; Table 6, single determinations",> 5 µM
same,IC50,"CCRF-CEM/VBL100; Table 7, CEM/VBL",> 5 µM
same,IC50,"CCRF-CEM/VM1; Table 6, single determinations",> 5 µM
C=CC[C@H](OC(=O)C[C@H](O)C(C)(C)C(=O)[C@H](C)[C@@H](O)[C@@H](C)CCCC(=C)C)/C(C)=C/c1csc(C)n1 [#13],IC50,"[1]; Table 6, single determinations",11.5 µM
same,IC50,"[1]; Table 7, CEM",11.5 µM
same,IC50,"CCRF-CEM/VBL100; Table 6, single determinations",5.63 µM
same,IC50,"CCRF-CEM/VBL100; Table 7, CEM/VBL",5.63 µM
same,IC50,"CCRF-CEM/VM1; Table 6, single determinations",14.5 µM
"C/C(=C\c1csc(C)n1)[C@@H]1C/C=C\CCCC[C@H](O)[C@@H](C)C(=O)C(C)(C)[C@@H](O)CC(=O)O1 [#14, Desmethyldesoxyepothilone A]",IC50,"[1]; Table 1, XTT",5 µM
same,IC50,"[1]; Table 6, single determinations",5.42 µM
same,IC50,"[1]; Table 7, CEM",5.42 µM
same,times less active than corresponding epothilone A counterpart (cytotoxicity),[1]; see Table 1,approximately 200 times
same,IC50,"CCRF-CEM/VBL100; Table 1, XTT",5.75 µM
same,IC50,"CCRF-CEM/VBL100; Table 6, single determinations",5.75 µM
same,IC50,"CCRF-CEM/VBL100; Table 7, CEM/VBL",5.75 µM
same,IC50,"CCRF-CEM/VM1; Table 1, XTT",6.29 µM
same,IC50,"CCRF-CEM/VM1; Table 6, single determinations",6.29 µM
"CC[C@@]1(O)C(=O)OCc2c1cc1n(c2=O)Cc2cc3ccccc3nc2-1 [Campothecin, camptothecin]",Therapeutic effect Rank Order,[2],dEpoB > Camptothecin >
same,toxicity,[3]; CPT 3 mg/kg Q2Dx5 i.p.,moderate toxicity without lethality
same,Therapeutic effect Rank Order,"[3]; MCF-7/Adr, i.p. (order wraps over rows r13-r14)",dEpoB >> Camptothecin >
same,Toxicity Death,[3]; camptothecin 3 mg/kg i.p. Q2Dx5 from day 8,0/6
same,Average Body Weight Change,[3]; [5],-0.6 g
same,Average Tumor Size (T/C),[3]; [5],0.95
same,Average Body Weight Change,[3]; [6],-0.4 g
same,Average Tumor Size (T/C),[3]; [6],0.76
same,Average Body Weight Change,[3]; [7],-0.8 g
same,Average Tumor Size (T/C),[3]; [7],0.61
same,Average Body Weight Change,[3]; [8],-0.9 g
same,Average Tumor Size (T/C),[3]; [8],0.43*
same,tumor size reduction,"[3]; camptothecin 3 mg/kg, day 17",57%
same,"Average Body Weight (change), Day 11",[3]; [9],-0.6 g
same,"Average Body Weight (change), Day 13",[3]; [9],-0.4 g
same,"Average Body Weight (change), Day 15",[3]; [9],-0.8 g
same,"Average Body Weight Change, Day 17",[3]; [9],-0.9 g
same,"Average Tumor Volume (T/C), Day 11",[3]; [9],0.95 T/C
same,"Average Tumor Volume (T/C), Day 13",[3]; [9],0.76 T/C
same,"Average Tumor Volume (T/C), Day 15",[3]; [9],0.61 T/C
same,"Average Tumor Volume (T/C), Day 17",[3]; [9],0.43 T/C
same,Died,[3]; [9],0/6
same,"Average Body Weight, Day 8","[3]; initial weight, first treatment day, high doses: Taxol 12, Adriamycin 3, Camptothecin 3.0 mg/kg i.p. day 8,10,12,14,16",24.5 g
C/C1=C/C[C@@H](/C(C)=C/c2csc(C)n2)OC(=O)C[C@H](O)C(C)(C)C(=O)[C@H](C)[C@@H](O)[C@@H](C)CCC1 [DesoxyepoB],"Average Body Weight Changes, Day 23",[4]; [10],-1.4 g
same,"Average Body Weight Changes, Day 25",[4]; [10],-3.6 g
same,"Average Body Weight Changes, Day 27",[4]; [10],-3.9 g
same,"Average Body Weight Changes, Day 29",[4]; [10],-5.2 g
same,"Average Body Weight Changes, Day 31",[4]; [10],-4.2 g
same,"Average Body Weight Changes, Day 33",[4]; [10],-3.1 g
same,"Average Body Weight Changes, Day 35",[4]; [10],-2.3 g
same,"Average Body Weight Changes, Day 37",[4]; [10],-1.2 g
same,"Average Body Weight Changes, Day 39",[4]; [10],-0.2 g
same,"Average Body Weight Changes, Day 41",[4]; [10],+0.9 g
same,"Average Tumor Size (T/C), Day 21",[4]; [10],1.10 T/C
same,"Average Tumor Size (T/C), Day 23",[4]; [10],0.73 T/C
same,"Average Tumor Size (T/C), Day 25",[4]; [10],0.31 T/C
same,"Average Tumor Size (T/C), Day 27",[4]; [10],0.09 T/C
same,"Average Tumor Size (T/C), Day 29",[4]; [10],0 T/C
same,"Average Tumor Size (T/C), Day 31",[4]; [10],0 T/C
same,"Average Tumor Size (T/C), Day 33",[4]; [10],0 T/C
same,"Average Tumor Size (T/C), Day 35",[4]; [10],0 T/C
same,"Proportion of Tumor Disappearance (n/total), Day 21",[4]; [10],0/3
same,"Proportion of Tumor Disappearance (n/total), Day 23",[4]; [10],0/3
same,"Proportion of Tumor Disappearance (n/total), Day 25",[4]; [10],0/3
same,"Proportion of Tumor Disappearance (n/total), Day 27",[4]; [10],0/3
same,"Proportion of Tumor Disappearance (n/total), Day 29",[4]; [10],3/3
same,"Proportion of Tumor Disappearance (n/total), Day 31",[4]; [10],3/3
same,"Proportion of Tumor Disappearance (n/total), Day 33",[4]; [10],3/3
same,"Proportion of Tumor Disappearance (n/total), Day 35",[4]; [10],3/3
same,"Proportion of Tumor Disappearance (n/total), Day 37",[4]; [10],1/3
same,"Proportion of Tumor Disappearance (n/total), Day 39",[4]; [10],1/3
same,"Proportion of Tumor Disappearance (n/total), Day 41",[4]; [10],0/3
same,"Average Body Weight Change, Day 23",[4]; [11],-1.4 g
same,"Average Body Weight Change, Day 25",[4]; [11],-3.6 g
same,"Average Body Weight Change, Day 27",[4]; [11],-3.9 g
same,"Average Body Weight Change, Day 29",[4]; [11],-5.2 g
same,"Average Body Weight Change, Day 31",[4]; [11],-4.2 g
same,"Average Tumor Size (T/C), Day 23",[4]; [11],0.68 T/C
same,"Average Tumor Size (T/C), Day 25",[4]; [11],0.30 T/C
same,"Average Tumor Size (T/C), Day 27",[4]; [11],0.09 T/C
same,"Average Tumor Size (T/C), Day 29",[4]; [11],0 T/C
same,"Average Tumor Size (T/C), Day 31",[4]; [11],0 T/C
same,Tumor Disappearance,[4]; [11],3/3
same,"Average Body Weight, Day 21",[4]; [11],26.6 g
same,"Average Body Weight, Day 21",[4]; [10],26.6 g

# Source: patent US6603023B2 (priority 1996, dated 2003)
